Results published in patent publication US7348400B2 (priority 2001, dated 2008).

How the values were obtained:
nAChR = assay type: binding, bovine
[1] = test system: unmyelinated primary afferent sensory nerves; conditions: rat, in vivo

Row | Molecule | displacement of 3H-epibatidine binding (nAChR) | further results
1 | C[N+]1(C)CCN(c2ccccc2)CC1.[I-] [DMPP, 1,1-dimethyl-4-phenylpiperazinium iodide] | displaced | 
2 | Clc1ccc(C2CC3CCC2N3)cn1 (stereo not drawn) [^3H-epibatidine, epibatidine] |  | Hill coefficient of 3H-epibatidine binding (nAChR): 1.08
3 | C[N+](C)(C)CCOC(N)=O [carbachol] | displaced | 
4 | Nc1cc[nH]c(=O)n1 [cytosine] | displaced | 
5 | CN1CCCC1c1cccnc1 (stereo not drawn) [nicotine] | displaced | 
6 | ω-conotoxin GVIA |  | inhibition of the vascular response to LFES of sensory nerves [1]: significant inhibition
